Reference: ChEMBL document CHEMBL3352675, “Synthetic ω-3 epoxyfatty acids as antiproliferative and pro-apoptotic agents in human breast cancer cells” (2014)
Calls of active or inactive are those of the source. The rule behind the calls is not given here.

How the values were obtained:
[1] = test system: MDA-MB-231; assay: Induction of apoptosis in human MDA-MB-231 cells assessed as viable cells level at 40 uM after 48 hrs by Annexin V-FITC and propidium iodide staining method (reference value: 92.6%); assay type: functional
[2] = test system: MDA-MB-231; assay: Antiproliferative activity against human MDA-MB-231 cells assessed as reduction in confluence at 40 uM after 48 hrs by crystal violet staining method; assay type: functional, cell-based
[3] = test system: MDA-MB-231; assay: Induction of cell cycle arrest in human MDA-MB-231 cells assessed as reduction in cell accumulation at G2/M phase at 40 uM after 48 hrs by flow cytometry; assay type: functional; settings: MDA-MB-231, 48 h
[4] = test system: MDA-MB-231; assay: Reduction in cyclin D1 immunoreactive protein expression in human MDA-MB-231 cells assessed as cyclin D1 level at 40 uM after 48 hrs; assay type: functional
[5] = test system: MDA-MB-231; assay: Antiproliferative activity against human MDA-MB-231 cells assessed as reduction in confluence at >40 uM after 120 hrs by crystal violet staining method; assay type: functional, cell-based
[6] = test system: MDA-MB-468; assay: Reduction in ATP production in human MDA-MB-468 cells at 40 uM after 48 hrs; assay type: functional, cell-based
[7] = biological target: c-Jun N-terminal kinase, JNK (Homo sapiens) (UniProt P45983+P53779+P45984); assay: Induction of JNK phosphorylation in human MDA-MB-231 cells at 40 uM after 48 hrs; assay type: cell-based
[8] = test system: T47D; assay: Reduction in ATP production in human T47D cells at 40 uM after 48 hrs; assay type: functional, cell-based
[9] = test system: MDA-MB-231; assay: Induction of apoptosis in human MDA-MB-231 cells assessed as early apoptosis cells level at 40 uM after 48 hrs by Annexin V-FITC and propidium iodide staining method (reference value: 0.5 %); assay type: functional
[10] = test system: MDA-MB-231; assay: Reduction in ATP production in human MDA-MB-231 cells assessed as ATP level at 40 uM after 48 hrs relative to untreated control; assay type: functional; parameters: scale not given: the % may be the effect or the level left
[11] = test system: MDA-MB-231; assay: Induction of apoptosis in human MDA-MB-231 cells at 40 uM after 48 hrs by Annexin V-FITC and propidium iodide staining method; assay type: functional
[12] = test system: MDA-MB-231; assay: Induction of apoptosis in human MDA-MB-231 cells assessed as necrosis cells level at 40 uM after 48 hrs by Annexin V-FITC and propidium iodide staining method (reference value: 3.3%); assay type: functional
[13] = test system: MDA-MB-231; assay: Induction of cell cycle arrest in human MDA-MB-231 cells assessed as reduction in cell accumulation at S phase at 40 uM after 48 hrs by flow cytometry; assay type: functional; settings: MDA-MB-231, 48 h
[14] = test system: MDA-MB-468; assay: Antiproliferative activity against human MDA-MB-468 cells assessed as reduction in confluence at 40 uM after 48 hrs by crystal violet staining method; assay type: functional, cell-based
[15] = test system: MDA-MB-231; assay: Induction of cell cycle arrest in human MDA-MB-231 cells assessed as increase in cell accumulation at […] phase at 40 uM after 48 hrs by flow cytometry; assay type: functional
[16] = test system: MDA-MB-231; assay: Induction of apoptosis in human MDA-MB-231 cells assessed as late apoptosis cells level at 40 uM after 48 hrs by Annexin V-FITC and propidium iodide staining method (reference value: 3.7%); assay type: functional
[17] = test system: MDA-MB-231; assay: Induction of apoptosis in human MDA-MB-231 cells assessed as increase in caspase 3 activity at 40 uM after 48 hrs; assay type: functional, cell-based
[18] = test system: T47D; assay: Antiproliferative activity against human T47D cells assessed as reduction in confluence at 40 uM after 48 hrs by crystal violet staining method; assay type: functional, cell-based
[19] = test system: MDA-MB-231; assay: Reduction in ATP production in human MDA-MB-231 cells at 40 uM after 120 hrs relative to untreated control; assay type: functional, cell-based
[20] = test system: MDA-MB-468; assay: Antiproliferative activity against human MDA-MB-468 cells assessed as reduction in confluence at 10 uM after 48 hrs by crystal violet staining method; assay type: functional, cell-based
[21] = test system: MDA-MB-231; assay: Reduction in ATP production in human MDA-MB-231 cells assessed as ATP level at 40 uM after 120 hrs relative to untreated control; assay type: functional; parameters: scale not given: the % may be the effect or the level left
[22] = test system: MDA-MB-231; assay: Induction of apoptosis in human MDA-MB-231 cells assessed as increase in caspase 3 activity at 40 uM after 48 hrs in presence of JNK gene silencing RNA; assay type: functional, cell-based
[23] = test system: MDA-MB-231; assay: Reduction in cell viability in human MDA-MB-231 cells at 1 to 40 uM after 48 to 120 hrs in presence of JNK inhibitor […]; assay type: functional, cell-based
[24] = test system: T47D; assay: Antiproliferative activity against human T47D cells assessed as reduction in confluence at 10 uM after 48 hrs by crystal violet staining method; assay type: functional, cell-based
[25] = test system: MDA-MB-231; assay: Antiproliferative activity against human MDA-MB-231 cells assessed as reduction in confluence at 10 uM measured over 120 hrs by crystal violet staining method; assay type: functional, cell-based
[26] = test system: MDA-MB-231; assay: Induction of apoptosis in human MDA-MB-231 cells assessed as increase in caspase 3 activity at 40 uM after 48 hrs in presence of JNK inhibitor […]; assay type: functional, cell-based
[27] = test system: MDA-MB-231; assay: Reduction in ATP production in human MDA-MB-231 cells at 10 uM after 48 to 120 hrs in presence of 10 uM AUDA; assay type: functional, cell-based
[28] = test system: T47D; assay: Reduction in ATP production in human T47D cells at 1 to 40 uM after 48 to 120 hrs; assay type: functional, cell-based
[29] = test system: MDA-MB-231; assay: Reduction in ATP production in human MDA-MB-231 cells at 20 uM after 48 to 120 hrs in presence of 10 uM AUDA; assay type: functional, cell-based
[30] = test system: MDA-MB-468; assay: Reduction in ATP production in human MDA-MB-468 cells at 1 to 40 uM after 48 to 120 hrs; assay type: functional, cell-based
[31] = test system: MDA-MB-231; assay: Antiproliferative activity against human MDA-MB-231 cells assessed as reduction in confluence at 10 uM after 48 hrs by crystal violet staining method; assay type: functional, cell-based
[32] = test system: MDA-MB-231; assay: Reduction in cell viability in human MDA-MB-231 cells at 1 to 40 uM after 48 to 120 hrs in presence of JNK gene silencing RNA; assay type: functional, cell-based
[33] = test system: MDA-MB-231; assay: Reduction in cell viability in human MDA-MB-231 cells at 1 to 40 uM after 48 to 120 hrs; assay type: functional, cell-based
[34] = test system: MDA-MB-231; assay: Increase in ATP production in human MDA-MB-231 cells at 40 uM after 48 to 120 hrs; assay type: functional, cell-based

CCNC(=O)NCCCCCCCCCCCCCCCC(=O)O
Activity [1]: 82.6%
inhibition [2]: inactive
inhibition at 40 µM [3]: 9%
Activity [4]: inactive
inhibition [5]: Active
Activity [6]: inactive
Activity [7]: inactive
Activity [8]: inactive
Activity [9]: 1.6%
Activity [10]: 72%
Activity [11]: inactive
Activity [12]: 7.3%
inhibition at 40 µM [13]: 21%
inhibition [14]: inactive
Activity [15]: 6%
Activity [16]: 8.4%
Activity [17]: Active
inhibition [18]: inactive

CCNC(=O)NCCCCCCCCCCCCCCCCC(=O)O
inhibition [2]: inactive
inhibition at 40 µM [3]: 9%
Activity [4]: inactive
inhibition [5]: Active
Activity [6]: inactive
Activity [7]: inactive
Activity [8]: inactive
Activity [10]: 72%
Activity [11]: inactive
inhibition at 40 µM [13]: 21%
inhibition [14]: inactive
Activity [15]: 6%
Activity [17]: Active
inhibition [18]: inactive

CCNC(=O)NCCCCCCCCCCCCCCCCCC(=O)O
inhibition [2]: inactive
inhibition at 40 µM [3]: 9%
Activity [4]: inactive
inhibition [5]: Active
Activity [6]: inactive
Activity [7]: inactive
Activity [8]: inactive
Activity [10]: 72%
Activity [11]: inactive
inhibition at 40 µM [13]: 21%
inhibition [14]: inactive
Activity [15]: 6%
Activity [17]: Active
inhibition [18]: inactive

CC(C)(C)NC(=O)NCCCCCCCCCCCCCCCC(=O)O
Activity [10]: inactive
Activity [17]: Active

CCCC(=O)NCCCCCCCCCCCCCCCC(=O)O
Activity [19]: inactive
Activity [17]: inactive

CCCCNC(=O)NCCCCCCCCCCCCCCCC(=O)O
Activity [10]: inactive
Activity [17]: Active

CCCNC(=O)NCCCCCCCCCCCCCCCC(=O)O
Activity [10]: inactive
Activity [17]: inactive

CCNC(=O)OCCCCCCCCCCCCCCCC(=O)O
Activity [19]: inactive
Activity [17]: Active

CC[C@@H]1O[C@@H]1CCCCCCCCCCCCCCCC(=O)O (relative stereo)
inhibition [20]: Active
Activity [1]: 27.3%
Activity [21]: 3.2%
inhibition at 40 µM [3]: 38%
Activity [4]: 23%
Activity [7]: Active
Activity [22]: inactive
Activity [9]: 4.1%
Activity [23]: inactive
Activity [10]: 45%
inhibition [24]: inactive
inhibition [25]: Active
Activity [26]: inactive
fold change (FC) [11]: 5
Activity [27]: Active
Activity [28]: Active
Activity [12]: 29.4%
inhibition at 40 µM [13]: 49%
Activity [29]: inactive
Activity [30]: Active
Activity [15]: 22%
Activity [16]: 39.2%
inhibition [31]: Active
Activity [17]: Active
Activity [32]: inactive

CC[C@H]1O[C@H]1CCCCCCCCCCCCCCCCC(=O)O (relative stereo)
inhibition [20]: Active
inhibition at 40 µM [3]: 30%
Activity [4]: 24%
Activity [7]: Active
inhibition [24]: inactive
inhibition [25]: Active
fold change (FC) [11]: 5
Activity [28]: inactive
inhibition at 40 µM [13]: 33%
Activity [30]: inactive
Activity [15]: 12%
inhibition [31]: Active
Activity [17]: Active

CC[C@@H]1O[C@@H]1CCCCCCCCCCCCCCCCCC(=O)O (relative stereo)
inhibition [20]: Active
inhibition at 40 µM [3]: 19%
Activity [4]: 47%
Activity [7]: Active
inhibition [24]: inactive
inhibition [25]: Active
Activity [11]: inactive
Activity [28]: inactive
inhibition at 40 µM [13]: 42%
Activity [30]: inactive
Activity [15]: 15%
inhibition [31]: Active
Activity [17]: inactive

CCCCCCCC[C@@H]1O[C@@H]1CCCCCCCCCC(=O)O (relative stereo)
Activity [33]: inactive
Activity [34]: Active
Activity [17]: inactive

CCCCC[C@@H]1O[C@@H]1CCCCCCCCCCCCC(=O)O (relative stereo)
Activity [33]: inactive
Activity [17]: inactive
